Results as given in US7285703B2, “Plant like starches and the method of making them in hosts” (BASF Plant Science GmbH, priority 1998, dated 2007).

Biological target: T1, maize starch synthase SSI-1 (STSI-1), full length SSI (583 amino acids), N-terminus CVAELSREGP (SEQ ID NO:64) (Zea mays, UniProt O49064)
T1 sequence (O49064 with tags, fused parts or gaps): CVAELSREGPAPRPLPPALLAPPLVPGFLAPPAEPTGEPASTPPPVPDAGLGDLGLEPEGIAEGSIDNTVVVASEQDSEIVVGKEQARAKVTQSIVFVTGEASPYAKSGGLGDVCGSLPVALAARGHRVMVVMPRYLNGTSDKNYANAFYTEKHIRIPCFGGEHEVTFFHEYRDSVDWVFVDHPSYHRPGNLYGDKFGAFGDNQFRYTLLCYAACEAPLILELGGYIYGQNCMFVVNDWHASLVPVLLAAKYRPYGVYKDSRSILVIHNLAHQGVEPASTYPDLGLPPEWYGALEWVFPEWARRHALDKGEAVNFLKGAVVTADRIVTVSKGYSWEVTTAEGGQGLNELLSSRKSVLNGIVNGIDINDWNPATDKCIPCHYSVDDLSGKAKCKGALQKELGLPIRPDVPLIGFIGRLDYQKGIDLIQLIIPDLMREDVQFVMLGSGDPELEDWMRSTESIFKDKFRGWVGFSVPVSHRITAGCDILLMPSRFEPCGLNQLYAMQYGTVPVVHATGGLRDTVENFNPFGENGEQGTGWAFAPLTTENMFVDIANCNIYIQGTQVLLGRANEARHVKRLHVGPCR
Assay: ADPGlc kinetics of starch synthase SSI-1
Type: biochemical
Conditions: 5 mg/ml amylopectin as primer, 37° C.
Excerpt: FIG. 58. SSI-1, SSI-2, and SSI-3 construct design. Three forms of SSI were constructed in the pET expression (see Methods). pExs10a encodes SSI-1, the full length maize SSI (583 amino acids) which has the N-terminal sequence CVAELSREGP (SEQ ID NO:64). pExs8 encodes a truncated SSI, SSI-2, with amino acids # 8-52 deleted from the N-terminus of SSI-1 and which has the N-terminal sequence CVAELSR/DLG (SEQ ID NO:65). pExs1d encodes the most truncated form of SSI, SSI-3, with the first 93 amino acids deleted from SSI-1 and which has the N-terminal sequence SIVFVTGE (SEQ ID NO:66). A depiction of the waxygene, encoding GBSS, which has the N-terminal sequence ASAGMNW (SEQ ID NO:67), is also included for comparison. The amino acid motif KS/TGGL (SEQ ID NO:9), the putative binding site for ADGPGlc, in indicated by the triangles. The KS/TGGL (SEQ ID NO:9) motif is located 18 amino acids from the N-terminus in GBSS, while the motif is 106 amino acids from the N-terminus in maize SSI. Drawing not to scale.
5 mL of supernatant were used to assay STS and SBE activities as previously described (Preiss) with minor modification. […] The unincorporated [^14C]-ADPGlc was separated with Dowex anion exchange column (200-400 mesh, Sigma Chemical Co.). […] SBE activity was determined by phosphorylase stimulation assay. One unit of activity is defined as 1 mmol Glc incorporated into the a-glucan per min at. […]

## Nc1ncnc2c1ncn2[C@@H]1O[C@H](COP(=O)(O)OP(=O)(O)O[C@H]2O[C@H](CO)[C@@H](O)[C@H](O)[C@H]2O)[C@@H](O)[C@H]1O [ADPGlc, adenosine diphosphate glucose]
+citrate
  Vm (ADPGlc kinetics): 18.0 ± 0.5 μmol/min/mg protein
−citrate
  Vm (ADPGlc kinetics): 6.38 ± 0.88 μmol/min/mg protein
